Experimental data from the NIST ThermoML archive (doi:10.1016/j.jct.2011.08.016).

Conditions: Liquid, Vibrating tube method

CCCCCCCCCC [decane]
mass density [kg/m3]
Conditions	313.07 K	323 K	332.87 K	342.78 K	352.8 K	362.73 K
1000 kPa	715.64	707.96	700.33	692.65	–	–
2000 kPa	716.68	708.93	701.26	693.68	686.08	678.44
3000 kPa	717.38	709.81	702.21	694.72	687.17	679.58
4000 kPa	718.16	710.88	703.17	695.7	688.23	680.71
5000 kPa	719.02	711.52	704.12	696.68	689.3	681.85
6000 kPa	719.65	712.48	705.07	697.68	690.33	682.98
7000 kPa	720.52	713.3	705.98	698.61	691.38	684.09
8000 kPa	721.28	714.23	706.88	699.57	692.38	685.16
9000 kPa	722.11	715.05	707.79	700.54	693.41	686.25
10000 kPa	723.13	715.91	708.65	701.49	694.37	687.29
11000 kPa	723.65	716.74	709.52	702.4	695.36	688.32
12000 kPa	724.48	717.54	710.39	703.29	696.32	689.33
13000 kPa	725.48	718.35	711.26	704.14	697.29	690.34
14000 kPa	726.15	719.15	712.07	705.05	698.22	691.28
15000 kPa	726.86	719.92	712.9	705.93	699.15	692.36
16000 kPa	727.49	720.7	713.71	706.79	700.03	–
17000 kPa	728.18	721.46	714.52	707.6	700.94	–
18000 kPa	729.07	722.22	715.32	–	701.82	–
18010 kPa	–	–	–	708.57	–	–
19000 kPa	729.72	722.97	716.1	709.45	702.71	–
20000 kPa	730.26	723.71	716.88	710.3	703.59	–
21000 kPa	731.22	724.45	717.65	710.91	704.44	–
22000 kPa	731.8	725.18	718.43	711.92	705.25	–
23000 kPa	732.7	725.92	719.19	712.48	706.14	–
24000 kPa	733.26	726.62	719.99	713.42	706.95	–
25000 kPa	733.93	727.42	720.76	714.1	707.83	–
